Molecular target: full-length human BTK (Homo sapiens (Human), UniProt Q06187)
Test: BTK IC50 enzyme assay (microfluidic off-chip mobility shift kinase assay)
Type: biochemical
Conditions: incubated for 90 min. at 27 C; read-out: Time Dependent BTK Enzyme Assay IC50
In short: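 Read-out separates phosphorylated peptide product from substrate by charge/mass in a mobility shift format with full-length human BTK.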

full-length human BTK, sequence (Q06187 whole entry): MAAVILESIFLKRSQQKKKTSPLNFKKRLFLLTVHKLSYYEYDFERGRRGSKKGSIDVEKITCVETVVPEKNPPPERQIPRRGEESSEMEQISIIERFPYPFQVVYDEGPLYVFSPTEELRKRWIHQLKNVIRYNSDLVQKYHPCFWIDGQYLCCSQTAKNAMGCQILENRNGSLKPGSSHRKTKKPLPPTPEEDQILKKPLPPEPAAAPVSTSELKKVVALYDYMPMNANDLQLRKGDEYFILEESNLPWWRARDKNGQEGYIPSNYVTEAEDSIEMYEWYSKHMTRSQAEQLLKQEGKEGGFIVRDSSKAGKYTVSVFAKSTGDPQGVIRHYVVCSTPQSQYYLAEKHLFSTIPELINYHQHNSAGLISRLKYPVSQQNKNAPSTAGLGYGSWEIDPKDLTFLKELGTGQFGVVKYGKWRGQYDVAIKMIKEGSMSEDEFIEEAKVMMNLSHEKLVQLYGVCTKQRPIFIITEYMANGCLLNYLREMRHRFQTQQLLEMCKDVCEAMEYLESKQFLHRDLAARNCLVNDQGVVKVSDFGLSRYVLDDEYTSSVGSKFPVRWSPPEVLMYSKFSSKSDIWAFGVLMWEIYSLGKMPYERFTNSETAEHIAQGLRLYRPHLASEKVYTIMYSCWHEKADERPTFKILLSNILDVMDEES

IC50 [nM]	SMILES
< 1000	Nc1ncnc(N[C@@H]2CCCN(S(=O)(=O)c3c(F)c(F)c(F)c(F)c3F)C2)c1-c1ccc(Oc2ccccc2)cc1 [A179, (R)-N4-(1-((perfluorophenyl)sulfonyl)piperidin-3-yl)-5-(4-phenoxyphenyl)pyrimidine-4,6-diamine]
< 100	C=CC(=O)Nc1cccc(Oc2ncnc(N)c2-c2cnc(OCc3ccccc3)nc2)c1 [A261, N-(3-((6-amino-2′-(benzyloxy)-[5,5′-bipyrimidin]-4-yl)oxy)phenyl)acrylamide]
< 1000	C=CC(=O)Nc1cccc(-c2cncnc2Nc2ccc(Oc3ccccc3)cc2)c1 [A283, N-(3-(4-((4-phenoxyphenyl)amino)pyrimidin-5-yl)phenyl)acrylamide]
< 1000	Nc1ncnc(NCC2CCN(C(=O)/C=C/CN3CCCC3)CC2)c1-c1ccc(Oc2ccccc2)cc1 [A220, (E)-1-(4-(((6-amino-5-(4-phenoxyphenyl)pyrimidin-4-yl)amino)methyl)piperidin-1-yl)-4-(pyrrolidin-1-yl)but-2-en-1-one]
> 1000	C=CC(=O)N1CCC(CNc2ncnc(N)c2-c2ccc(C(=O)Nc3ccccc3)cc2)C1 (stereo not shown) [A155, 4-(4-(((1-acryloylpyrrolidin-3-yl)methyl)amino)-6-aminopyrimidin-5-yl)-N-phenylbenzamide]
< 1000	C=CC(=O)N[C@H]1C[C@H](O)C[C@@H](Nc2ncnc(N)c2-c2ccc(Oc3ccccc3)cc2)C1 (racemic) [A188, N-((1R,3S,5R)-3-((6-amino-5-(4-phenoxyphenyl)pyrimidin-4-yl)amino)-5-hydroxycyclohexyl)acrylamide]
< 100	Nc1ncnc(Oc2cccc(NC(=O)CCl)c2)c1-c1ccc(OCc2ccccc2)c(F)c1 [A351, N-{3-[6-Amino-5-(4-benzyloxy-3-fluoro-phenyl)-pyrimidin-4-yloxy]-phenyl}-2-chloro-acetamide]
< 100	C=CC(=O)Nc1cccc(-c2c(N)ncnc2Nc2ccc(Oc3ccccc3)cc2)c1 [A241, N-(3-(4-amino-6-((4-phenoxyphenyl)amino)pyrimidin-5-yl)phenyl)acrylamide]
< 100	C=CC(=O)Nc1cccc(Oc2ncnc(N)c2-c2cnn(Cc3cc(F)cc(F)c3)c2)c1 [A183, N-(3-((6-amino-5-(1-(3,5-difluorobenzyl)-1H-pyrazol-4-yl)pyrimidin-4-yl)oxy)phenyl)acrylamide]
< 100	C=CC(=O)Nc1cccc(Oc2ncnc(N)c2-c2ccc(OCc3ccccc3)c(F)c2)c1 [A348, N-{3-[6-Amino-5-(4-benzyloxy-3-fluoro-phenyl)-pyrimidin-4-yloxy]-phenyl}-acrylamide]
< 100	C=CC(=O)N1CCO[C@H](COc2ncnc(N)c2-c2ccc(Oc3ccccc3)cc2)C1 [A65, (S)-1-(2-(((6-amino-5-(4-phenoxyphenyl)pyrimidin-4-yl)oxy)methyl)morpholino)prop-2-en-1-one]
< 100	C=CC(=O)Nc1cccc(Oc2ncnc(N)c2-c2cnn(Cc3ccc(F)cc3)c2)c1 [A187, N-(3-((6-amino-5-(1-(4-fluorobenzyl)-1H-pyrazol-4-yl)pyrimidin-4-yl)oxy)phenyl)acrylamide]
< 100	CC#CC(=O)Nc1cccc(Oc2ccnc(N)c2-c2ccc(Oc3ccccc3)cc2)c1 [A340, N-(3-((2-amino-3-(4-phenoxyphenyl)pyridin-4-yl)oxy)phenyl)but-2-ynamide]
< 1000	C=CC(=O)N1CCC2(CCN(c3ncnc(N)c3-c3ccc(Oc4ccccc4)cc3)CC2)C1 [A92, 1-(8-(6-amino-5-(4-phenoxyphenyl)pyrimidin-4-yl)-2,8-diazaspiro[4.5]decan-2-yl)prop-2-en-1-one]
< 1000	C=CC(=O)Nc1cccc(Oc2ncnc(N)c2-c2c(F)cc(OCc3ccccc3)cc2F)c1 [A294, N-(3-((6-amino-5-(4-(benzyloxy)-2,6-difluorophenyl)pyrimidin-4-yl)oxy)phenyl)acrylamide]
< 1000	C=CC(=O)Nc1cccc(Oc2ncnc(N)c2-c2cncc(OC)c2)c1 [A291, N-(3-((6-amino-5-(5-methoxypyridin-3-yl)pyrimidin-4-yl)oxy)phenyl)acrylamide]

— US9580449B2, “Compositions and methods for the production of pyrimidine and pyridine compounds with BTK inhibitory activity” (Merck Patent GmbH, priority 2011, dated 2017)
